{"source": "paper PMC3265452", "about": "(PLoS Neglected Tropical Diseases, 2012)", "note": "Where a name gives a salt, the structure may show the parent alone."}
{"target": "AaDOP2 (Aedes aegypti, UniProt H6D5H2)", "sequence (H6D5H2 1-476)": "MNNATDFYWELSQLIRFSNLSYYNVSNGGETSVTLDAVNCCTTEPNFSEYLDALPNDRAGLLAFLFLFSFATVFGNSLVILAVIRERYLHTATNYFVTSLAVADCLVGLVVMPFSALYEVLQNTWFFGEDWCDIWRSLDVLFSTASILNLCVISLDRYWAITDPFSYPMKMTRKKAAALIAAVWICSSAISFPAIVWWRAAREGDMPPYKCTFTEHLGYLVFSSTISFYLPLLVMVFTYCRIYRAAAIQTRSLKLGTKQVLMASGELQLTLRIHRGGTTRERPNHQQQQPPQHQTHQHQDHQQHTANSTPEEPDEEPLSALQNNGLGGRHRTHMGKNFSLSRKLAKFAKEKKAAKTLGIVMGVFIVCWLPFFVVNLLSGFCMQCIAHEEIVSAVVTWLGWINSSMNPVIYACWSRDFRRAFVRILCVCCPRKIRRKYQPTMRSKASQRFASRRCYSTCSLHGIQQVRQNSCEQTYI", "assay": "AaDOP2 antagonist screen of the LOPAC1280 library (HEK-CRELuc-Aadop2 cells, luminescence)", "assay_type": "cell-based", "conditions": "not given"}
{"compound": "COc1cc(CC(=O)O)ccc1O", "note": "[Compound 576, 4-Hydroxy-3-methoxyphenylacetic acid]", "Compound effect (percent receptor signaling in presence of test compound, relative lux units relative to the SCH23390 control)": 82}
{"compound": "NCCS(=O)O", "note": "[Compound 578, Hypotaurine]", "Compound effect (percent receptor signaling in presence of test compound, relative lux units relative to the SCH23390 control)": 89}
{"compound": "NNc1nncc2ccccc12", "note": "[Compound 580, Hydralazine hydrochloride]", "Compound effect (percent receptor signaling in presence of test compound, relative lux units relative to the SCH23390 control)": 100}
{"compound": "Cl.OCc1c[nH]cn1", "note": "[Compound 581, 4-Imidazolemethanol hydrochloride]", "Compound effect (percent receptor signaling in presence of test compound, relative lux units relative to the SCH23390 control)": 114}
{"compound": "C[N+](C)(C)CCCCCC[N+](C)(C)C.[Cl-].[Cl-]", "note": "[Compound 582, Hexamethonium dichloride]", "Compound effect (percent receptor signaling in presence of test compound, relative lux units relative to the SCH23390 control)": 94}
{"compound": "COc1ccc(CCN)cc1O.Cl", "note": "[Compound 586, 4-Methoxy-3-hydroxyphenethylamine hydrochloride]", "Compound effect (percent receptor signaling in presence of test compound, relative lux units relative to the SCH23390 control)": 130}
{"compound": "Nc1c2c(nc3ccccc13)CCCC2O.O=C(O)/C=C\\C(=O)O", "note": "(stereo not drawn) [Compound 587, Hydroxytacrine maleate]", "Compound effect (percent receptor signaling in presence of test compound, relative lux units relative to the SCH23390 control)": 86}
{"compound": "C[C@]12CCC(=O)C=C1CC[C@@H]1[C@@H]2[C@@H](O)C[C@@]2(C)[C@H]1CC[C@]2(O)C(=O)CO", "note": "[Compound 588, Hydrocortisone]", "Compound effect (percent receptor signaling in presence of test compound, relative lux units relative to the SCH23390 control)": 78}
{"compound": "[Cl-].[Li+]", "note": "[Compound 589, Lithium Chloride]", "Compound effect (percent receptor signaling in presence of test compound, relative lux units relative to the SCH23390 control)": 86}
{"compound": "COC(=O)[C@H](NC(=O)c1cc(-c2ccccc2)nc2ccccc12)c1ccccc1", "note": "[Compound 591, SB 218795]", "Compound effect (percent receptor signaling in presence of test compound, relative lux units relative to the SCH23390 control)": 98}
{"compound": "O=c1cc(O)cc(/C=C/c2ccc(O)c(O)c2)o1", "note": "[Compound 592, Hispidin]", "Compound effect (percent receptor signaling in presence of test compound, relative lux units relative to the SCH23390 control)": 81}
{"compound": "CCCc1c(-c2ccc(O)cc2)nn(-c2ccc(O)cc2)c1-c1ccc(O)cc1", "note": "[Compound 594, 1,3,5-tris(4-hydroxyphenyl)-4-propyl-1H-pyrazole]", "Compound effect (percent receptor signaling in presence of test compound, relative lux units relative to the SCH23390 control)": 73}
{"compound": "Oc1ccc(Cn2ccnc2S)cc1", "note": "[Compound 595, 1-(4-Hydroxybenzyl)imidazole-2-thiol]", "Compound effect (percent receptor signaling in presence of test compound, relative lux units relative to the SCH23390 control)": 63}
{"compound": "Cc1nccc2c1[nH]c1ccccc12", "note": "[Compound 597, Harmane]", "Compound effect (percent receptor signaling in presence of test compound, relative lux units relative to the SCH23390 control)": 60}
{"compound": "Cl.N[C@@H](Cc1cnc[nH]1)C(=O)O", "note": "[Compound 601, L-Histidine hydrochloride]", "Compound effect (percent receptor signaling in presence of test compound, relative lux units relative to the SCH23390 control)": 91}
{"target": "AaDOP2 (Aedes aegypti, UniProt H6D5H2)", "assay": "AaDOP2 antagonist screen of the LOPAC1280 library (HEK-CRELuc-Aadop2 cells, luminescence)", "assay_type": "cell-based", "conditions": "10 µM compound, 300 nM dopamine, 2 hr; hit = compound effect <20", "units": {"Compound effect (percent receptor signaling in presence of test compound, relative lux units relative to the SCH23390 control)": "%"}}
{"compound": "C[C@]12CCC(=O)C=C1CC[C@@H]1[C@@H]2[C@@H](O)C[C@@]2(C)[C@H]1CC[C@]2(O)C(=O)COC(=O)CCC(=O)[O-].[Na+]", "note": "[Compound 583, Hydrocortisone 21-hemisuccinate sodium]", "Compound effect (percent receptor signaling in presence of test compound, relative lux units relative to the SCH23390 control)": 136}
{"compound": "CC(=O)O.NC(=NCCC[C@H](N)C(=O)O)NO", "note": "[Compound 598, NG-Hydroxy-L-arginine acetate]", "Compound effect (percent receptor signaling in presence of test compound, relative lux units relative to the SCH23390 control)": 94}
{"compound": "CC1=C(/C=C/C(C)=C/C=C/C(C)=C/C(=O)Nc2ccc(O)cc2)C(C)(C)CCC1", "note": "[Compound 599, Retinoic acid p-hydroxyanilide]", "Compound effect (percent receptor signaling in presence of test compound, relative lux units relative to the SCH23390 control)": 88}
{"compound": "CCCCC#Cc1nc(N)c2ncn([C@@H]3O[C@H](C(=O)NCC)[C@@H](O)[C@H]3O)c2n1", "note": "[Compound 600, HE-NECA]", "Compound effect (percent receptor signaling in presence of test compound, relative lux units relative to the SCH23390 control)": 99}
{"compound": "NC(=O)NO", "note": "[Compound 604, Hydroxyurea]", "Compound effect (percent receptor signaling in presence of test compound, relative lux units relative to the SCH23390 control)": 122}
{"compound": "COc1cc(C(O)CO)ccc1OS(=O)(=O)[O-].[K+]", "note": "(stereo not drawn) [Compound 607, MHPG sulfate potassium]", "Compound effect (percent receptor signaling in presence of test compound, relative lux units relative to the SCH23390 control)": 131}
